Converted amounts (≈) assume the structure as drawn.
Assays:
[1] = system: C-MLSB resistant MRSA AW7 and P8; assay: Experimental endocarditis in rats; assay type: in vivo, rat; conditions: i.v. pump simulating human kinetics, every 12 hours
Source text: Sterile aortic vegetations were produced in female Wistar rats (weight 180 to 200 g) by the method of Heraiefet al., Infect Immunol., 37, 127-31 (1982), the disclosure of which is incorporated herein by reference in its entirety. Close by, an intravenous line containing a Silastic catheter was inserted into the jugular vein of a rat. The distal portion of the catheter was connected to a programmable pump device through a swivel, thus allowing the animals to move around their cage. The pump was set to deliver a volume of 0.2 ml of saline per hour to keep the line open until the onset of the therapy. In some experiments, quinupristine/dalfopristine was injected in combination with cefepime to the animals, with 2 infusion pumps, one to simulate human kinetics of quinupristine/dalfopristine and one to simulate human kinetics of cefepime. The 2 pumps were connected to a 2 way swivel and the drugs were infused into the animals via 2 independent jugular lines. No i.v. lines were placed in the control animals. Bacterial endocarditis was induced 24 hours after catheterization of the animals with 0.5 ml of saline containing 10^5 CFU of either of the test organisms. This inoculum was 10 times larger than the minimum inoculum producing endocarditis in 90% of the untreated rats.
Treatment was started 12 hours after bacterial challenge and lasted 3 or 5 days. The distribution of the antibiotics simulated the drug kinetics in the serum of humans. Quinupristine/dalfopristine was given to simulate treatment in humans with 7 mg/kg of the drug administered i.v. every 12 hours. Cefepime was given to simulate treatment in humans with 2 g of the drug given i.v. every 12 hours. This required, for the experiment, a total amount (mg/kg of body weight) per 12 hours of 38 mg/kg of quinupristine/dalfopristine and 142 mg/kg of cefepime.
The control rats were sacrificed at the onset of the treatment (i.e., 12 hours after inoculation) in order to measure both the frequency and the severity of valvular infection at the start of the therapy. Treated rats were sacrificed 12 hours after the low level of the last antibiotic dose of either test drug. At that time, no residual antibiotic could be detected in the blood. The valvular vegetation were dissected under sterile conditions, weighed, homogenized in 1 ml of saline, and serially diluted before being plated for colony counts. The number of colonies growing on the plates was determined after 48 hours of incubation at 35° C. Bacterial densities in the vegetations were expressed as log10 CFU/g of tissue. The minimum detection level was ≧2 log10 CFU/g of vegetation. For statistical comparisons of differences between the vegetation bacterial densities of various treatment groups, culture-negative vegetations were considered to contain 2 log10 CFU/g. […]

[2] = system: MRSA clinical isolates (Staphylococcus aureus resistant to methicillin); assay: MIC by broth macrodilution; assay type: cell-based; conditions: for Range of MICs: 5 clinical isolates, 24 h at 35° C.
Protocol: A panel of 10 clinical isolates of MRSA (5 MLSB-susceptible (susceptible to Macrolide-Lincosamide-Streptogramin B) and 5 C-MLSB-resistant (Constitutively Resistant to Macrolide-Lincosamide-Streptogramin B)) originating from various geographical areas were tested for their susceptibilities to quinupristin/dalfopristin and to cefepime. Two of these isolates, namely AW7 and P8, were further used for animal experiments. These both were C-MLSB-resistant.
Bacteria were grown at 35° C., either in liquid cultures in tryptic soy broth (TSB; Difco Laboratories, Detroit, Mich.) or cation supplemented Mueller Hinton Broth (MHB; Difco), or on tryptic soy agar (TSA; Difco). All growth media were supplemented with 2% of sodium chloride to increase the expression of β-lactam resistance by MRSA. Bacterial stocks were kept at −70° C. in TSB, supplemented with 10% (vol/vol) glycerol.
The MIC (minimum inhibitory concentration) of the tested antibiotics was determined by a known broth macrodilution method (D. Amsterdam, Susceptibility testing of antimicrobials in liquid media, p.52-111, In V. Lorian ed., Antibiotics in Laboratory Medicine, Williams and Wilkins, Baltimore (1996)) with final inoculum of 10^5 to 10^6 CFU/ml. The MIC was defined as the lowest antibiotic concentration that inhibited visible bacterial growth after 24 hours of incubation at 35° C.

CO/N=C(\C(=O)N[C@@H]1C(=O)N2C(C(=O)[O-])=C(C[N+]3(C)CCCC3)CS[C@H]12)c1csc(N)n1 [cefepime, (6R,7R)-7-(2-(2-aminothiazol-4-yl)-2(Z)-(methoxyimino)acetamido)-3-(1-methyl-pyrrolidiniomethyl)-3-cephem-4-carboxylate]
infected rats/total rats ([1]; Strain AW-7): 6/6 | median log10 CFU/g of vegetation ([1]; Strain AW-7): (8.6) log10 CFU/g | infected rats/total rats ([1]; Strain P8): 8/8 | median log10 CFU/g of vegetation ([1]; Strain P8): (9.0) log10 CFU/g | Range of MICs ([2]; MRSA C-MLSB-R): >64 mg/L | Range of MICs ([2]; MRSA MLSB-S): >64 mg/L | MIC ([2]; Staphylococcus aureus, C-MLSB resistant MRSA AW7 and P8): 64 µg/mL (≈ 133 µM)

— patent US6465428B1, “Pharmaceutical combinations based on dalfopristine and quinupristine, and on cefepime” (Aventis Pharma S.A., priority 1999, dated 2002)
